This is an account of results in patent publication US11505539B2, “Deuterated compounds as inhibitors of the BCL6 BTB domain protein-protein interaction and/or as BCL6 degraders” (Ontario Institute for Cancer Research (OICR), priority 2017, dated 2022).

Bounds are passed on as bounds.

For data set [1], the target named is T1, BTB domain of BCL6 / SMRT BBD peptide (Homo sapiens, UniProt P41182).
T1 construct: Thioredoxin-His6-STag-TEV-biotinylation-thrombin-BCL6 amino acids 1-129
In words: BCL6-BTB - SMRT peptide inhibition fluorescence polarization (FP) screen. In kind it is binding. The note with it: 1.25 uM BCL6-BTB, 20 nM Bodipy-TMR SMRT peptide probe; lower limit of assay 1 uM. As for the experimental part: (a) BCL6-BTB—SMRT Peptide Inhibition Fluorescence Polarization (FP) Screen
Compounds were dissolved in 100% DMSO at 10 mM, assayed fresh, and then stored at −20° C. for repeat studies and future work. The reaction mixture consists of 1.25 uM of the 25 kd BCL6-BTB domain (Thioredoxin-His6-STag-TEV-biotinylation-thrombin-BCL6 amino acids 1-129) plus 20 nM of the peptide probe Ac-GSLVATVKEAGRSIHEIPA (SEQ ID NO: 1) with 16 amino acid peptide from the SMRT BBD (1414-1429) with a Bodipy-TMR fluorescent label on the lysine. […] 20 ul of this assay mixture was added to each well of the 384 well plates with the exception of the control wells that contained no protein (for setting the minimum FP value). Compounds were directly sprayed using an HP D300 Digital Dispenser from 10 mM DMSO stocks onto black 384 well plates (greiner bio-one #781900) in a concentration range from 1 uM to 500 uM (10 points in duplicate). The assay was equilibrated for 1 hour prior to reading the FP values (Ex 540 nm/Em 580 nm) with a Perkin Elmer Envision plate reader. The results were curve fitted and IC50 values were calculated using the BioAssay software from CambridgeSoft.
For orientation: In fluorescence polarisation assays a small probe gives low polarisation when free and higher when bound to something large.

Another data set concerns the target T2, BCL6 BTB domain (Homo sapiens, UniProt P41182).
T2 construct: BCL6 BTB domain (biotin-thrombin-BCL6 amino acids 1-129; 17 kd); Thioredoxin-His6-STag (N, cleaved yes); made in house
Briefly: Surface plasmon resonance (SPR) assay. In kind it is binding. The note with it: Biacore T200, single cycle kinetics. As for the experimental part: (b) Surface Plasmon Resonance (SPR) Assay
SPR studies were performed using a Biacore™ T200 instrument (GE Health Sciences Inc.). The BCL6 BTB protein used in the FP assay was biotinylated using the site specific biotinylating enzyme BirA, and then cleaved with TEV protease to produce the BCL6 BTB domain (biotin-thrombin-BCL6 amino acids 1-129; 17 kd) that was use in SPR. This protein was stably captured (1000RU) to streptavidin coupled SA chips (BR-1005-31, GE Health Sciences Inc.) according to the manufacture's protocol. Compounds were dissolved in 100% DMSO at 10 mM and 2-fold serial dilutions were done in 100% DMSO. For SPR analysis the serially titrated compounds were diluted 1/20 into buffer (10 mM HEPES pH7.4, 150 mM NaCl, 0.05% Tween-20, 3 mM EDTA) giving a final concentration of 5% DMSO. The Biacore flow rate was set at 100 ul/min. For KD determinations, single cycle kinetic analysis was performed with an on time of 60 seconds, and an off time of 300 seconds. Curve fitting and KD calculations were done with the Biacore T200 Evaluation software (GE Health Sciences Inc).
(SPR reads the build-up and loss of mass on a sensor chip optically.)

Data set [2] deals with SuDHL4-3xBCL6-TK-Luc cells. Briefly: Cell-based BCL6 reporter luciferase assay. The note with it: Homo sapiens, SU-DHL-4, 48 h, two days. As for the experimental part:
(c) Cell-Based Luciferase Assay:
A BCL6 reporter construct containing three copies of the consensus BCL6 binding site, the TK promoter, and the firefly luciferase gene was stably expressed in SuDHL4 cells after lentivirus infection and selection with Blasticidin. SuDHL4-3×BCL6-TK-Luc cells were seeded into a Viewplate 384-well assay dish at 15,000 cells/well in 25 ul medium (Alpha-MEM high glucose containing 10% FBS, 25 mM HEPES, […] GlutaMAX, 100 ug/ml Normocin, and […] Gentamycin, Invitrogen). A HP D300 digital dispenser was used to dose cells with DMSO or test compounds across a 10-point range of concentrations (high dose of 10 uM), and cultures were grown in a humidified 5% CO2 incubator at 37° C. After two days, plates were removed from incubator and equilibrated to room temperature. An equal volume of neolite reporter gene assay reagent was added to each well, and samples were processed according to manufacturer's instructions (Perkin Elmer). Luminescent signal was measured using an Envision plate reader equipped with a US-Luminescence detector.

For a further data set, the system named is Karpas422 cells. Briefly: Tumor cell growth inhibition assay. In kind it is cell-based. The note with it: Homo sapiens, KARPAS-422, 144 h; Karpas422, six days, ATPlite; read-out: GI Karpas EC50. How it is done:
(d) Tumor Cell Growth inhibition Assay:
Karpas422 cells were seeded into a 96-well plate at 2,000 cells/well in 150 ul medium (Alpha-MEM containing 10% FBS, […] Normocin, and […] Gentamycin, Invitrogen). A HP D300 digital dispenser was used to dose cells with DMSO or test compounds across a 10-point range of concentrations (high dose of 5 uM), and cultures were grown in a humidified 5% CO2 incubator at 37° C. After six days, plates were removed from incubator and equilibrated to room temperature. An equal volume of ATPlite assay reagent was added to each well, and samples were processed according to manufacturer's instructions (Perkin Elmer). Luminescent signal was measured using an Envision plate reader equipped with a US-Luminescence detector.
On the technique in general: In ATP-based viability assays light output follows the ATP content of the culture.

The nature of data set [3]: Liver microsomal metabolic stability, human. In kind it is in vitro ADME. The note with it: % remaining after 60 min, 1 μM compound, 0.5 mg/mL protein. As for the experimental part: (§1) (f) Microsomal Stability Assays
(§2) Liver Microsomal Metabolic Stability
(§3) Working stocks were initially diluted to a concentration of 40.0 μM in 0.1 M potassium phosphate buffer (pH 7.4) before addition to the reaction vials. CD-1 mouse (male) or pooled human liver microsomes (Corning Gentest) were utilized at a final concentration of 0.5 mg/mL (protein). Duplicate wells were used for each time point (0 and 60 minutes). Reactions were carried out at 37° C. in an orbital shaker at 175 rpm, and the final DMSO concentration was kept constant at 0.1%. The final volume for each reaction was 100 μL, which includes the addition of an NADPH-Regeneration Solution (NRS) mix. This NRS mix is comprised of glucose 6-phosphate dehydrogenase, NADP+, MgCl2, and glucose 6-phosphate. Upon completion of the 60 minute time point, reactions were terminated by the addition of 2-volumes (200 μL) of ice-cold, acetonitrile containing 0.5% formic acid and internal standard. Samples were then centrifuged at 4,000 rpm for 10 minutes to remove debris and precipitated protein. Approximately 150 μL of supernatant was subsequently transferred to a new 96 well microplate for LC/MS analysis:
(§4) Narrow-window mass extraction LC-MS analysis was performed for all samples in this study using a Waters Xevo quadrupole time-of-flight (QTof) mass spectrometer to determine relative peak areas of test compounds. The percent remaining values are calculated using the following equations: % remaining=(A)/A0×100
(§5) A is area response after incubation
(§6) A0 is area response at initial time point

Data set [4] can be described thus: Liver microsomal metabolic stability, mouse. In kind it is in vitro ADME. The note with it: % remaining after 60 min, 1 μM compound, 0.5 mg/mL protein. How it is done:
as §1, §2, §3, §4, §5, §6

A short description of data set [5]: Microsomal intrinsic clearance assay. In kind it is in vitro ADME. Particulars: pH 7.4, liver microsomes 0.5 mg/mL, species (mouse or human) not given; for microsomal CLint at 1 μM: read-out: Clint (μL/min/mg protein). As for the experimental part:
CD-1 mouse (male) or pooled human liver microsomes (Corning Gentest) were utilized at a final concentration of 0.5 mg/mL (protein). 12.5 μL of each drug solution were placed into a well of 96 well plate. Reactions were initiated by the addition of activated microsome solutions (500 μL) to drug solutions. Reactions were carried out at 37° C. in an orbital shaker at 175 rpm, and the final DMSO concentration was kept constant at 0.1%. Test compounds were incubated at a final concentration of 1 μM. 50 μL of aliquots of reaction mixtures were quenched by mixing with two parts of stop solution (internal standard containing 0.5% formic acid in acetonitrile) at appropriate time-points and mixed well. Then, solutions were centrifuged at 4000 rpm for 10 min. Supernatants were transferred to a new 96-well plate and analyzed by a Waters Q-TOF mass spectrometer coupled with an UPLC System. Recovery analysis was performed using relative peak areas and narrow window mass extraction.
The ln(% remaining) is plotted against time and the gradient of the line determined. Elimination Constant (k)=−slope Half-life (t½)(min)=ln 2/k=0.693/k V (μL/mg)=volume of incubation (μL)/protein in the incubation (mg) Intrinsic Clearance (CLint)(μL/min/mg protein)=V·0.693/t½=V·k

For data set [6] the following is noted: as reported; limits use in animal studies; cited from earlier work.

On to `[2H]C([2H])([2H])NC(=O)C([2H])([2H])Oc1cc2cc(Nc3nc(N4C[C@H](C)C[C@H](C)C4)ncc3Cl)ccc2n(C)c1=O` [Example Ia, 2-((6-((5-chloro-2-((3R,5S)-3,5-dimethylpiperidin-1-yl)pyrimidin-4-yl)amino)-1-methyl-2-oxo-1,2-dihydroquinolin-3-yl)oxy)-N-(methyl-d3)acetamide-2,2-d2], for which the concentration for half-maximal inhibition (IC50) (in general, the concentration needed to halve the response being measured) in data set [1] is at most 1000 nM. Moreover, on BCL6 BTB domain, the dissociation constant (Kd) (usually the free concentration of one partner at which half of the binding sites on the other are occupied at equilibrium, for simple one-to-one binding) was 4.56 nM. In data set [2], this compound had a concentration for half-maximal inhibition (IC50) of 46.6 nM. Also, in the data set on Karpas422 cells, the 50% effective concentration (EC50) (commonly the concentration needed to bring the measured effect to its halfway point) is 14.1 nM. Further, the “Human Liver Microsomes (HLM, % @ 1 h)” value in data set [3] turned out to be 26%. Besides, the “Mouse Liver Microsomes (MLM, % @ 1 h)” value in data set [4] came to 8%. Also, in data set [5], the half-life (usually the time needed for the level to fall by half in the phase considered) at 1 μM was 29 min and the microsomal CLint at 1 μM amounted to 48 µL/min/mg.
In the case of `[2H]C([2H])([2H])NC(=O)C([2H])([2H])Oc1cc2cc(Nc3nc(N4C[C@@H](C)C(F)(F)[C@@H](C)C4)ncc3Cl)ccc2n(C)c1=O` [Ib], the 50% inhibitory concentration (IC50) in data set [1] was at most 900 nM; in data set [2], 7.57 nM. For the same compound, the Kd at BCL6 BTB domain came to 4.53 nM. Moreover, the half-maximal effective concentration (EC50) in the data set with Karpas422 cells stood at 5.04 nM. Further, the “Human Liver Microsomes (HLM, % @ 1 h)” value in data set [3] was determined as 100%. Besides, the “Mouse Liver Microsomes (MLM, % @ 1 h)” value in data set [4] is listed as 91%. In addition, the half-life at 1 μM in data set [5] is 82 min. Besides, the microsomal CLint at 1 μM in data set [5] was found to be 17 µL/min/mg.
In the case of `CNC(=O)COc1cc2cc(Nc3nc(N4C[C@H](C)C[C@H](C)C4)ncc3Cl)ccc2n(C)c1=O` [BI-3802, reference compound], in data set [3], the “Human Liver Microsomes (HLM, % @ 1 h)” value is 25%. Also, the “Mouse Liver Microsomes (MLM, % @ 1 h)” value in data set [4] came out at 13%. For the same compound, in data set [5], the half-life at 1 μM came out at 12 min and the microsomal CLint at 1 μM was 112 µL/min/mg. In addition, the bioavailability result in data set [6] is reported as “poor bioavailability”.
